Assay results published in patent US11400132B2 (NOVALIQ GMBH, priority 2016, dated 2022).

Experiment: Water solubility / residual water in 1-perfluorobutyl-pentane
Assay type: physicochemical
Settings: based on weight of 1-perfluorobutylpentane
Source text: The predominant contribution to residual water content in the composition can be attributed to water sorption or association with ciclosporin (e.g. not limited to, but for example derived from manufacturing process, or its transport and storage).
The 1-perfluorobutyl-pentane as featured in any of the compositions or methods described herein is preferably essentially free of water. In such case, the presence of residual water in the composition according to the invention is derived from the ciclosporin or optionally, if present, one or more excipients that is functionally not a co-solvent.

CCCCCC(F)(F)C(F)(F)C(F)(F)C(F)(F)F [F4H5, 1-perfluorobutyl-pentane]
water solubility in 1-perfluorobutylpentane: less than 1.20×10^−5 wt %
